Patent publication US9505750B2, “5-aminocyclylmethyl-oxazolidin-2-one derivatives” (priority 2007, dated 2016)
In brackets after ≈: the same amount, converted by molar mass.

These compounds were tested on M. catarrhalis A894 (assay: MIC determination by microdilution in cation-adjusted Mueller-Hinton Broth (NCCLS)). Settings: Moraxella catarrhalis, pH 7.2-7.3.
Assay type: cell-based
Experimental: These assays have been performed following the description given in “Methods for dilution Antimicrobial Susceptibility Tests for Bacteria that Grow Aerobically, 4th ed.; Approved standard: NCCLS Document M7-A4; National Committee for Clinical Laboratory Standards: Villanova, Pa., USA, 1997”. Minimal inhibitory concentrations (MICs; mg/l) were determined in cation-adjusted Mueller-Hinton Broth (BBL) by a microdilution method following NCCLS guidelines (National Committee for Clinical Laboratory Standards. Methods for Dilution Antimicrobial Susceptibility). The pH of the test medium was 7.2-7.3. All Example compounds were tested against several Gram-positive and Gram-negative bacteria.

| Compound | MIC [µg/mL] |
| --- | --- |
| COc1ccc2nccc(CCC3CCN(C[C@@H]4CN(c5ccc6c(c5)NC(=O)CS6)C(=O)O4)C3)c2n1 (mixture of isomers) [Example 10, 6-((R)-5-{(RS)-3-[2-(6-methoxy-[1,5]naphthyridin-4-yl)-ethyl]-pyrrolidin-1-ylmethyl}-2-oxo-oxazolidin-3-yl)-4H-benzo[1,4]thiazin-3-one] | ≤ 0.031 |
| COc1ccc2ncnc(OC3CCN(C[C@@H]4CN(c5ccc6c(c5)NC(=O)CO6)C(=O)O4)CC3)c2c1 [Example 31, 6-{(R)-5-[4-(6-methoxy-quinazolin-4-yloxy)-piperidin-1-ylmethyl]-2-oxo-oxazolidin-3-yl}-4H-benzo[1,4]oxazin-3-one] | ≤ 0.031 |
| COc1cnc2cccc(CNC3CN(C[C@@H]4CN(c5ccc6c(c5)NC(=O)CO6)C(=O)O4)C3)c2n1 [Example 34, 6-((R)-5-{3-[(3-methoxy-quinoxalin-5-ylmethyl)-amino]-azetidin-1-ylmethyl}-2-oxo-oxazolidin-3-yl)-4H-benzo[1,4]oxazin-3-one] | 0.063 (≈ 0.128 µM) |
| COc1ccc2nccc(NC3CN(C[C@@H]4CN(c5ccc6c(c5)OCCO6)C(=O)O4)C3)c2n1 [Example 42, (R)-3-(2,3-dihydro-benzo[1,4]dioxin-6-yl)-5-[3-(6-methoxy-[1,5]naphthyridin-4-ylamino)-azetidin-1-ylmethyl]-oxazolidin-2-one] | ≤ 0.031 |
| COc1ccc2ncnc(OC3CCN(C[C@@H]4CN(c5cc6c(nn5)OCCO6)C(=O)O4)C3)c2c1 (mixture of isomers) [Example 33, (R)-3-(6,7-dihydro-[1,4]dioxino[2,3-c]pyridazin-3-yl)-5-[(RS)-3-(6-methoxy-quinazolin-4-yloxy)-pyrrolidin-1-ylmethyl]-oxazolidin-2-one] | 0.25 |
| COc1ccc2nccc(NC3CCN(C[C@@H]4CN(c5ccc6c(c5)NC(=O)CS6)C(=O)O4)CC3)c2c1 [Example 41, 6-{(R)-5-[4-(6-methoxy-quinolin-4-ylamino)-piperidin-1-ylmethyl]-2-oxo-oxazolidin-3-yl}-4H-benzo[1,4]thiazin-3-one] | 0.5 (≈ 0.962 µM) |
| COc1ccc2ncnc(O[C@@H]3CN(C[C@@H]4CN(c5ccc6c(c5)NC(=O)CS6)C(=O)O4)C[C@H]3O)c2c1 (relative stereo) [Example 22, 6-{(R)-5-[(3R*,4R*)-3-hydroxy-4-(6-methoxy-quinazolin-4-yloxy)-pyrrolidin-1-ylmethyl]-2-oxo-oxazolidin-3-yl}-4H-benzo[1,4]thiazin-3-one] | ≤ 0.031 |
| N#Cc1ccc2nccc(NC3CN(C[C@@H]4CN(c5ccc6c(c5)NC(=O)CS6)C(=O)O4)C3)c2c1 [Example 38, 4-{1-[(R)-2-oxo-3-(3-oxo-3,4-dihydro-2H-benzo[1,4]thiazin-6-yl)-oxazolidin-5-ylmethyl]-azetidin-3-ylamino}-quinoline-6-carbonitrile] | 0.125 (≈ 0.257 µM) |
| COc1ccc2nccc(NC3CCN(C[C@@H]4CN(c5ccc6c(c5)NC(=O)CS6)C(=O)O4)CC3)c2n1 [Example 40, 6-{(R)-5-[4-(6-methoxy-[1,5]naphthyridin-4-ylamino)-piperidin-1-ylmethyl]-2-oxo-oxazolidin-3-yl}-4H-benzo[1,4]thiazin-3-one] | ≤ 0.031 |
| COc1ccc2ncc(F)c(CNC3CN(C[C@@H]4CN(c5ccc6c(c5)NC(=O)CO6)C(=O)O4)C3)c2c1 [Example 28, 6-((R)-5-{3-[(3-fluoro-6-methoxy-quinolin-4-ylmethyl)-amino]-azetidin-1-ylmethyl}-2-oxo-oxazolidin-3-yl)-4H-benzo[1,4]oxazin-3-one] | ≤ 0.031 |
| COc1ccc2ncnc(OCC3CN(C[C@@H]4CN(c5ccc6c(c5)OCCO6)C(=O)O4)C3)c2c1 [Example 30, (R)-3-(2,3-dihydro-benzo[1,4]dioxin-6-yl)-5-[3-(6-methoxy-quinazolin-4-yloxymethyl)-azetidin-1-ylmethyl]-oxazolidin-2-one] | 0.063 (≈ 0.132 µM) |
| COc1ccc2ncnc(O[C@@H]3CN(C[C@@H]4CN(c5ccc6c(c5)NC(=O)CS6)C(=O)O4)C[C@H]3n3ccnn3)c2c1 (relative stereo) [Example 16, 6-{(R)-5-[(3R*,4R*)-3-(6-methoxy-quinazolin-4-yloxy)-4-[1,2,3]triazol-1-yl-pyrrolidin-1-ylmethyl]-2-oxo-oxazolidin-3-yl}-4H-benzo[1,4]thiazin-3-one] | ≤ 0.031 |
| O=C1COc2ccc(N3C[C@@H](CN4CC(Nc5ccnc6ccc(F)cc56)C4)OC3=O)cc2N1 [Example 43, 6-{(R)-5-[3-(6-fluoro-quinolin-4-ylamino)-azetidin-1-ylmethyl]-2-oxo-oxazolidin-3-yl}-4H-benzo[1,4]oxazin-3-one] | 0.25 (≈ 0.539 µM) |
| COc1ccc2nccc(OC3CN(C[C@@H]4CN(c5ccc6c(c5)OCCO6)C(=O)O4)C3)c2c1 [Example 44, (R)-3-(2,3-dihydro-benzo[1,4]dioxin-6-yl)-5-[3-(6-methoxy-quinolin-4-yloxy)-azetidin-1-ylmethyl]-oxazolidin-2-one] | 8 (≈ 17.3 µM) |
| COc1ccc2nccc(NC3CCN(C[C@@H]4CN(c5ccc6c(c5)NC(=O)CO6)C(=O)O4)CC3)c2n1 [Example 35, 6-{(R)-5-[4-(6-methoxy-[1,5]naphthyridin-4-ylamino)-piperidin-1-ylmethyl]-2-oxo-oxazolidin-3-yl}-4H-benzo[1,4]oxazin-3-one] | ≤ 0.031 |
| COc1ccc2nccc(NC3CN(C[C@@H]4CN(c5ccc6c(c5)NC(=O)CO6)C(=O)O4)C3)c2c1 [Example 25, 6-{(R)-5-[3-(6-methoxy-quinolin-4-ylamino)-azetidin-1-ylmethyl]-2-oxo-oxazolidin-3-yl}-4H-benzo[1,4]oxazin-3-one] | ≤ 0.031 |
| COc1ccc2nccc(NC(=O)C3CCN(C[C@@H]4CN(c5ccc6c(c5)NC(=O)CS6)C(=O)O4)C3)c2n1 (mixture of isomers) [Example 8, (RS)-1-[(R)-2-oxo-3-(3-oxo-3,4-dihydro-2H-benzo[1,4]thiazin-6-yl)-oxazolidin-5-ylmethyl]-pyrrolidine-3-carboxylic acid (6-methoxy-[1,5]naphthyridin-4-yl)-amide] | ≤ 0.031 |
| COc1ccc2ncnc(OC3CCN(C[C@@H]4CN(c5ccc6c(c5)OCCO6)C(=O)O4)C3)c2c1 (mixture of isomers) [Example 4, (R)-3-(2,3-dihydro-benzo[1,4]dioxin-6-yl)-5-[(RS)-3-(6-methoxy-quinazolin-4-yloxy)-pyrrolidin-1-ylmethyl]-oxazolidin-2-one] | ≤ 0.031 |
| COc1ccc2ncnc(O[C@@H]3CN(C[C@@H]4CN(c5ccc6c(c5)NC(=O)CS6)C(=O)O4)C[C@H]3NC(C)=O)c2c1 (relative stereo) [Example 32, N-{(3R*,4R*)-4-(6-methoxy-quinazolin-4-yloxy)-1-[(R)-2-oxo-3-(3-oxo-3,4-dihydro-2H-benzo[1,4]thiazin-6-yl)-oxazolidin-5-ylmethyl]-pyrrolidin-3-yl}-acetamide] | 0.25 (≈ 0.443 µM) |
| COc1ccc2ncnc(O[C@H]3C[C@@H](CN)N(C[C@@H]4CN(c5ccc6c(c5)NC(=O)CS6)C(=O)O4)C3)c2c1 [Example 15, 6-{(R)-5-[(2S,4S)-2-aminomethyl-4-(6-methoxy-quinazolin-4-yloxy)-pyrrolidin-1-ylmethyl]-2-oxo-oxazolidin-3-yl}-4H-benzo[1,4]thiazin-3-one] | ≤ 0.031 |
| COc1ccc2nccc(NC3CN(C[C@@H]4CN(c5ccc6c(c5)NC(=O)CO6)C(=O)O4)C3)c2n1 [Example 24, 6-{(R)-5-[3-(6-methoxy-[1,5]naphthyridin-4-ylamino)-azetidin-1-ylmethyl]-2-oxo-oxazolidin-3-yl}-4H-benzo[1,4]oxazin-3-one] | ≤ 0.031 |
